The conditions of series [1]: dose level 6, epirubicin plus docetaxel every 3 weeks (Schedule A) with pegfilgrastim support.
Protocol: Patients were from a national clinical trial hosted by the National Cancer Institute of Canada Clinical Trials Group (referred to as group “MA.22”) and were treated with increasing dose levels of both epirubicin and docetaxel, with pegfilgrastim support to reduce neutropenia associated with this therapy.
The test system of the next series is breast cancer. Conditions: after anthracycline-based chemotherapy; cited from earlier work.

The values below come from patent publication US20100317001A1, “METHOD OF USING TUMOUR RNA INTEGRITY TO MEASURE RESPONSE TO CHEMOTHERAPY IN CANCER PATIENTS” (LAURENTIAN UNIVERSITY, priority 2007, published 2010).

Consider `CC(=O)O[C@@]12CO[C@@H]1C[C@H](O)[C@@]1(C)C(=O)[C@H](O)C3=C(C)[C@@H](OC(=O)[C@H](O)[C@@H](NC(=O)OC(C)(C)C)c4ccccc4)C[C@@](O)([C@@H](OC(=O)c4ccccc4)[C@H]21)C3(C)C` [docetaxel], for which the maximum tolerated dose in series [1] is 75 mg/m^2. Moreover, the “breast cancer patients that respond” value with breast cancer is listed as 35.4%.
With `COc1cccc2c1C(=O)c1c(O)c3c(c(O)c1C2=O)C[C@@](O)(C(=O)CO)C[C@@H]3O[C@H]1C[C@H](N)[C@@H](O)[C@H](C)O1` [epirubicin], the maximum tolerated dose in series [1] came out at 105 mg/m^2.
As to `CC(=O)O[C@H]1C(=O)[C@@]2(C)[C@H]([C@H](OC(=O)c3ccccc3)[C@]3(O)C[C@H](OC(=O)[C@H](O)[C@@H](NC(=O)c4ccccc4)c4ccccc4)C(C)=C1C3(C)C)[C@]1(OC(C)=O)CO[C@@H]1C[C@@H]2O` [paclitaxel], in the series on breast cancer, the “breast cancer patients that respond” value was 33%.
